According to patent US9273067B2, “Pyrazolopyrimidine macrocycles as inhibitors of human immunodeficiency virus replication” (BRISTOL-MYERS SQUIBB COMPANY, priority 2014, dated 2016):

Tested on: NL-RLuc virus (recombinant HIV NL4-3 with Renilla Luciferase) in MT-2 cells
Assay: Inhibition of HIV replication (NL-RLuc virus in MT-2 cells, luciferase readout)
Format: cell-based, human immunodeficiency virus (HIV)
From the text: Inhibition of HIV Replication:
A recombinant NL-RLuc proviral clone was constructed in which a section of the nef gene from NL4-3 was replaced with the Renilla Luciferase gene. This virus is fully infectious and can undergo multiple cycles of replication in cell culture. In addition, the luciferous reporter provides a simple and easy method for quantitating the extent of virus growth and consequently, the antiviral activity of test compounds. The plasmid pNLRLuc contains the proviral NL-Rluc DNA cloned into pUC 18 at the PvuII site. The NL-RLuc virus was prepared by transfection of 293T cells with the plasmid pNLRLuc. Transfections were performed using the LipofectAMINE PLUS kit from Invitrogen (Carlsbad, Calif.) according to the manufacturer and the virus generated was titered in MT-2 cells. For susceptibility analyses, the titrated virus was used to infect MT-2 cells in the presence of compound, and after 5 days of incubation, cells were processed and quantitated for virus growth by the amount of expressed luciferase. Assay media was RPMI 1640 supplemented with 10% heat inactivated fetal bovine serum (FBS), 100 units/ml penicillin G/100 units/ml streptomycin, 10 mM HEPES buffer pH 7.55 and 2 mM L-glutamine. The results from at least 2 experiments were used to calculate the EC50 values. Luciferase was quantitated using the Dual Luciferase kit from Promega (Madison, Wis.). Susceptibility of viruses to compounds was determined by incubation in the presence of serial dilutions of the compound. The 50% effective concentration (EC50) was calculated by using the exponential form of the median effect equation where (Fa)=1/[1+(ED50/drug conc.)^m] (Johnson V A, Byington R T. Infectivity Assay. In Techniques in HIV Research. ed. Aldovini A, Walker B D. 71-76. New York: Stockton Press. 1990).

[1] = MT2, 120 h, NL-RLuc virus infecting MT-2 cells, 5 days of incubation, 10% FBS, luciferase quantitation, at least 2 experiments

Row | Compound | EC50 [1] | EC50 ({})
1 | Cc1nc2cc3nn2c(c1[C@H](OC(C)(C)C)C(=O)O)N1CCC(C)(CC1)OCCCC[C@H](C)Oc1c(F)cc(F)cc1CCC3 [Example 41, (2S)-2-(tert-Butoxy)-2-[(20S)-15,17-difluoro-4,20,26-trimethyl-19,25-dioxa-1,5,7,8-tetraazapentacyclo[24.2.2.1^6,^9.0^2,^7.0^13,^18]hentriaconta-2,4,6(31),8,13(18),14,16-heptaen-3-yl]acetic acid] | 0.01 µM | –
2 | Cc1nc2cc3nn2c(c1[C@H](OC(C)(C)C)C(=O)O)N1CCC(C)(CC1)OCCCC[C@H](C)Oc1ccc(F)c(F)c1CCC3 [Example 42, (2S)-2-(tert-Butoxy)-2-[(20S)-14,15-difluoro-4,20,26-trimethyl-19,25-dioxa-1,5,7,8-tetraazapentacyclo[24.2.2.1^6,^9.0^2,^7.0^13,^18]hentriaconta-2,4,6(31),8,13(18),14,16-heptaen-3-yl]acetic acid] | 0.002 µM | –
3 | Cc1nc2cc3nn2c(c1[C@H](OC(C)(C)C)C(=O)O)N1CCC(C)(CC1)OCCCC[C@H](C)Oc1cc(F)c(F)cc1CCC3 [Example 43, (2S)-2-(tert-Butoxy)-2-[(20S)-15,16-difluoro-4,20,26-trimethyl-19,25-dioxa-1,5,7,8-tetraazapentacyclo[24.2.2.1^6,^9.0^2,^7.0^13,^18]hentriaconta-2,4,6(31),8,13(18),14,16-heptaen-3-yl]acetic acid] | 0.001 µM | –
4 | CCCC1CCCCOC2(C)CCN(CC2)c2c([C@H](OC(C)(C)C)C(=O)O)c(C)nc3cc(nn23)COCc2ccc(C)cc2O1 (stereo partly drawn) [Example 44, (2S)-2-(tert-Butoxy)-2-{4,16,26-trimethyl-20-propyl-11,19,25-trioxa-1,5,7,8-tetraazapentacyclo[24.2.2.1^6,^9.0^2,^7.0^13,^18]hentriaconta-2,4,6(31),8,13(18),14,16-heptaen-3-yl}acetic acid] | – | 0.005 µM
5 | CCCC1CCCCOC2(C)CCN(CC2)c2c([C@H](OC(C)(C)C)C(=O)O)c(C)nc3cc(nn23)COCc2ccc(C)cc2O1 (stereo partly drawn) [Example 45, (2S)-2-(tert-butoxy)-2-{4,16,26-trimethyl-20-propyl-11,19,25-trioxa-1,5,7,8-tetraazapentacyclo[24.2.2.1^6,^9.0^2,^7.0^13,^18]hentriaconta-2,4,6(31),8,13(18),14,16-heptane-3-yl}acetic acid] | – | 0.035 µM
6 | Cc1ccc(C2CCCCOC3(C)CCN(CC3)c3c([C@H](OC(C)(C)C)C(=O)O)c(C)nc4cc(nn34)CO2)cc1 (stereo partly drawn) [Example 46, (2S)-2-(tert-butoxy)-2-[4,18-dimethyl-12-(4-methylphenyl)-11,17-dioxa-1,5,7,8-tetraazatetracyclo[16.2.2.1^6,^9.0^2,^7]tricosa-2,4,6(23),8-tetraen-3-yl]acetic acid] | – | 0.735 µM
7 | Cc1ccc(C2CCCCOC3(C)CCN(CC3)c3c([C@H](OC(C)(C)C)C(=O)O)c(C)nc4cc(nn34)CO2)cc1 (stereo partly drawn) [Example 47, (2S)-2-(tert-butoxy)-2-[4,18-dimethyl-12-(4-methylphenyl)-11,17-dioxa-1,5,7,8-tetraazatetracyclo[16.2.2.1^6,^9.0^2,^7]tricosa-2,4,6(23),8-tetraen-3-yl]acetic acid] | – | 1.59 µM
8 | Cc1nc2cc3nn2c(c1[C@H](OC(C)(C)C)C(=O)O)N1CCC(C)(CC1)OCCCC[C@@H](COCc1ccccc1)OC3 [Example 48, (2S)-2-[(12S)-12-[(benzyloxy)methyl]-4,18-dimethyl-11,17-dioxa-1,5,7,8-tetraazatetracyclo[16.2.2.1^6,^9.0^2,^7]tricosa-2,4,6(23),8-tetraen-3-yl]-2-(tert-butoxy)acetic acid] | 0.111 µM | –
9 | CCCC1CCCCOC2(C)CCN(CC2)c2c([C@H](OC(C)(C)C)C(=O)O)c(C)nc3cc(nn23)COCc2cc(F)ccc2O1 (stereo partly drawn) [Example 49, (2S)-2-(tert-butoxy)-2-{15-fluoro-4,26-dimethyl-20-propyl-11,19,25-trioxa-1,5,7,8-tetraazapentacyclo[24.2.2.1^6,^9.0^2,^7.0^13,^18]hentriaconta-2,4,6(31),8,13(18),14,16-heptaen-3-yl}acetic acid] | – | 0.005 µM
